Columns and labels:
[1] = system: human articular chondrocytes; experiment: Increase of intracellular cAMP in human articular chondrocytes (cAMP EIA); type: cell-based; conditions: PGE2 1 μM, 30 minutes, vehicle 0.4
Description: Human articular cartilage (articular cartilage of degenerative malum coxae patient) was soaked in phosphate buffer (pH 7.2) and only the cortical layer of the joint portion was scrapped with, a knife into a 50 ml tube containing same buffer. The collected knee joint cortical layer was cut into as small sections as possible on a dish with a razor and transferred to a centrifuge tube.
To the centrifuge tube, phosphate buffer (pH 7.2) containing 1 mg/ml of hyaluronidase (SIGMA: Cat. No. H-3506) was added and shaken at 37° C. for 15 minutes. The precipitates were separated by centrifugation (2,000 rpm, 5 minutes) and added to Hank's balanced salt solution (GIBCO; Cat. No. 15050-065) containing 0.25% trypsin and shaken at 37° C. for 30 minutes.
After separation of precipitates by centrifugation (2,000 rpm, 5 minutes), α-minimum essential medium (GIBCO; Cat. No. 12571-063) containing 0.25% collagenase for cell diffusion (Wako Pure Chemical Industries, Ltd., 034-10533) and 10% fetal calf serum (GIBCO; Cat. No. 10099-141) were added to the precipitates and shaken at 37° C. overnight.
Cartilage fragments were removed using a 40 μm Cell Strainer (FALCON; Cat. No. 2340), and α-minimum essential medium containing 10% fetal calf serum was added to the collagenase-treated cells and centrifuged (1,400 rpm, 10 minutes).
The precipitates were washed three times with α-minimum essential medium containing 10% fetal calf serum and suspended in the same medium to an appropriate volume and seeded into 48-well plates (50,000 cells/well). On the next day, the medium was replaced with α-minimum essential medium containing 10% fetal calf serum. The α-minimum essential medium used contained antibiotics (100 U/ml penicillin G and 100 μg/ml streptomycin sulfate) and an antifungal (0.25 μg/ml amphotericin B) (GIBCO; Cat. No. 15240-062). […]
After 30 minutes cultivation, medium was discarded. […] The residue was dissolved in an assay buffer attached with cAMP EIA system (Amersham Pharmacia Biotech; Cat. No. RPN225) and cAMP concentration was measured with said system.

[2] = system: rabbit articular chondrocytes; experiment: Matrix production of rabbit articular chondrocytes in the presence of IL-1; type: cell-based; conditions: 1 × 10^−6 M; IL-1β 1 ng/ml; until day 3; vehicle = 100
Description: Four NZW line rabbits (Kitayama Labes., Co Ltd.; male; 4-week-old) were sacrificed with bleeding under ether anesthesia and knee joints of femur side were collected aseptically. Only the cortical layer was scrapped with a surgical knife in phosphate buffer (pH 7.2) containing 0.2% glucose and then placed into a 50 ml tube containing phosphate buffered saline containing 0.2% glucose. The collected knee joint cortical layer was cut into as small sections as possible on a dish with a razor, combined with 50 ml of phosphate buffer (100 mg trypsin, 40 mg EDTA·4 Na; pH 7.2) containing 0.2% glucose, supplied with 10× trypsin-ethylenediamine tetraacetic acid tetra sodium salt (EDTA·4Na: GIBCO; Cat. No. 15400-054) and shaken at 37° C. for 15 minutes.
After shaking, the precipitates were collected by centrifugation (1,400 rpm) and washed twice with 40 ml of phosphate buffer (pH 7.2) with 0.2% glucose.
To the washed precipitates was added 40 ml of α-minimum essential medium (MEM: GIBCO; Cat. No. 12571-063) containing 60 mg of collagenase for cell diffusion (Wako Pure Chemical Industries, Ltd., 034-10533) and antibiotics (200 U/ml penicillin G and 200 μg/ml streptomycin sulfate) (GIBCO; Cat. No. 15140-122), and the mixture was transferred to a 100 ml beaker containing a sterilized stirrer bar.
The incubation was conducted in a CO2 incubator at 37° C. for 30 minutes under stirring with a stirrer bar. Deoxyribonuclease I (Takara Shuzo Co., LTD.; Cat. No. 2210A) was then added at a concentration of 70 U/ml. The cultivation was conducted under the same condition for another 30 minutes. The supernatant of the culture was collected in another vessel and the remaining cartilage slips were then cultured again for about 30 minutes in freshly prepared α-minimum essential medium containing 60 mg of collagenase and 70 U/m1 deoxyribonuclease I.
To the previously collected culture supernatant and the last culture, from which cartilage slips had been removed using a 40 μm Cell Strainer (FALCON; Cat. No. 2340), 10 ml of α-minimum essential medium (MEM: GIBCO; Cat. No. 12571-063) containing 10% fetal calf serum (GIBCO Cat. No. 10099-141) and antibiotics (200 U/ml penicillin G and 200 μg/ml streptomycin sulfate) (GIBCO; Cat. No. 15140-122) was added and centrifuged (1,400 rpm, 10 minutes).
The precipitates were washed twice with α-minimum essential medium containing 10% fetal calf serum and antibiotics, suspended with an appropriate volume of the same medium, and seeded into 48-well plates (20,000 cells/well). […]
After staining, the cells were washed 3 times with 1 ml of phosphate buffer (pH 7.2). Alcian blue which had stained cartilage matrix was dissolved with 0.25 ml of 6 M aqueous guanidine hydrochloride solution and a portion of which was used to determine the absorbance at 620 nm. […]

SMILES	cAMP Production (picomol/well) ([1]; 1 × 10^−5)	cAMP Production (picomol/well) ([1]; 1 × 10^−6)	Proteoglycan Production (%) [2]
CCOc1cc2cc(CO)c(CO)c(-c3ccnc(-n4nc(-c5cccnc5)c5ccccc5c4=O)c3)c2cc1OCC [Compound (2)]	23.2 picomol/well	13.8 picomol/well	143%
COc1ccc(C(=O)Nc2c(Cl)cncc2Cl)cc1OC1CCCC1 [Compound (11)]	10.6 picomol/well	–	121%

Reference: US8399466B2, “Composition for regenerative treatment of cartilage disease” (Mitsubishi Tanabe Pharma Corporation, priority 2001, dated 2013)
